# Measured values from PubChem BioAssay AID1259408 (Genetic Toxicology Data Bank (GENE-TOX), 2018).
# Active and inactive are the calls of the source. No rule for the calls is given here.
# Test system: GENE-TOX genotoxicity assays, various organisms and cells
# Assay: GENE-TOX mutagenicity studies
# Details: for call: Assay Type: In vivo carcinogenicity studies
# [1] = Species/Cell Type: Saccharomyces cerevisiae, Assay Type: Mitotic recombination or gene conversion, Assay Code: YEH-, Evaluation Type: Evaluation A (Pre-1980)
# [2] = Species/Cell Type: Salmonella typhimurium (one or more of the five standard strains: TA98, TA100, TA1535, TA1537, and TA1538), Assay Type: Histidine reverse gene mutation, Ames assay, Assay Code: SALT, Evaluation Type: Evaluation A (Pre-1980)
# [3] = Species/Cell Type: Salmonella typhimurium, Assay Type: Forward and reverse gene mutation, host-mediated assay, Assay Code: HMA-, Evaluation Type: Evaluation A (Pre-1980)
# [4] = Species/Cell Type: Salmonella typhimurium (one or more of the five standard strains: TA98, TA100, TA1535, TA1537, and TA1538), Assay Type: Histidine reverse gene mutation, Ames assay, Assay Code: SAL-, Evaluation Type: Evaluation A (Pre-1980)
smiles,measurement,setting,value
COc1cc2c(c3oc(=O)c4c(c13)CCC4=O)[C@@H]1CCO[C@@H]1O2,mutagenic call,"Species/Cell Type: Bacillus subtilis (H17 vs M45), Assay Type: Rec-assay, spot test, DNA effects (bacterial DNA repair), Assay Code: REWT, Evaluation Type: Evaluation A (Pre-1980)",no conclusion
same,mutagenic call,"Species/Cell Type: Chinese hamster lung (V79) cells, Assay Type: Forward gene mutation at the HPRT or ouabain locus, Assay Code: V79+, Evaluation Type: Evaluation A (Pre-1980)",active; positive
same,mutagenic call,"Species/Cell Type: Escherichia coli polA (W3110 vs P3478), Assay Type: Rec-assay, DNA effects (bacterial DNA repair), Assay Code: RE2-, Evaluation Type: Evaluation A (Pre-1980)",inactive; negative
same,mutagenic call,"Species/Cell Type: Escherichia coli polA (W3119 vs P3478), Assay Type: Rec-assay, DNA effects (bacterial DNA repair), Assay Code: RE1T, Evaluation Type: Evaluation A (Pre-1980)",no conclusion
same,mutagenic call,"Species/Cell Type: Human diploid fibroblasts, Assay Type: Unscheduled DNA synthesis (UDS) in vitro, DNA effects, Assay Code: UDH-*, Activation: With metabolic activation, Evaluation Type: Evaluation A (Pre-1980)",inactive; negative
same,call,"Species/Cell Type: Nonhuman, Assay Code: CCG+L, Evaluation Type: Evaluation A (Pre-1980)",active; positive
same,mutagenic call,"Species/Cell Type: Nonhuman, Assay Type: Sister-chromatid exchange (SCE) in vitro, Assay Code: SC2+D*, Activation: With metabolic activation, Dose Response: With dose response, Evaluation Type: Evaluation B (Post-1980)",active; positive
same,mutagenic call,"Species/Cell Type: Rat primary hepatocytes, Assay Type: Unscheduled DNA synthesis (UDS) in vitro, DNA effects, Assay Code: UDP-, Evaluation Type: Evaluation A (Pre-1980)",inactive; negative
same,mutagenic call,[1],inactive; negative
same,mutagenic call,[2],no conclusion
same,mutagenic call,[3],inactive; negative
same,mutagenic call,"Species/Cell Type: Syrian hamster embryo (SHE) cells, Assay Type: Cell transformation, clonal assay, Assay Code: CTC+, Evaluation Type: Evaluation A (Pre-1980)",active; positive
CCCCc1ccc(C(=O)O)nc1,mutagenic call,"Species/Cell Type: Bacillus subtilis (H17 vs M45), Assay Type: Rec-assay, spot test, DNA effects (bacterial DNA repair), Assay Code: REW-, Evaluation Type: Evaluation A (Pre-1980)",inactive; negative
Oc1cccc2cc3cccc(O)c3c(O)c12,mutagenic call,"Species/Cell Type: Escherichia coli polA (W3119 vs P3478), Assay Type: Rec-assay, DNA effects (bacterial DNA repair), Assay Code: RE1+, Evaluation Type: Evaluation A (Pre-1980)",active; positive
same,mutagenic call,"Species/Cell Type: Fischer rat embryo (RLV/1706) cells, Assay Type: Cell transformation, viral enhanced, Assay Code: CTR+, Evaluation Type: Evaluation A (Pre-1980)",active; positive
same,mutagenic call,"Species/Cell Type: Mammalian polychromatic erythrocytes, Assay Type: Micronucleus test, chromosome aberrations, Assay Code: MNT-, Evaluation Type: Evaluation B (Post-1980)",inactive; negative
same,mutagenic call,"Species/Cell Type: Mouse (BALB/c-3T3) cells, Assay Type: Cell transformation, Assay Code: CTB-, Evaluation Type: Evaluation A (Pre-1980)",inactive; negative
same,call,"Species/Cell Type: Nonhuman, Assay Code: CCGT, Evaluation Type: Evaluation A (Pre-1980)",no conclusion
same,mutagenic call,[4],inactive; negative
same,mutagenic call,[3],inactive; negative
same,mutagenic call,"Species/Cell Type: Syrian hamster embryo (SHE) cells, Assay Type: Cell transformation, clonal assay, Assay Code: CTC-, Evaluation Type: Evaluation A (Pre-1980)",inactive; negative
Oc1ccc(Cl)c2cccnc12,mutagenic call,[2],no conclusion
Cc1ccccc1S(N)(=O)=O,mutagenic call,"Species/Cell Type: Drosophila melanogaster, Assay Type: Sex-linked recessive lethal gene mutation, Assay Code: SRLT, Evaluation Type: Evaluation A (Pre-1980)",no conclusion
same,mutagenic call,"Species/Cell Type: Mammalian polychromatic erythrocytes, Assay Type: Micronucleus test, chromosome aberrations, Assay Code: MNTT, Evaluation Type: Evaluation B (Post-1980)",no conclusion
same,mutagenic call,[4],inactive; negative
COc1cccc(OC)c1O,mutagenic call,"Species/Cell Type: Human lymphocytes, Assay Type: Sister-chromatid exchange (SCE) in vitro, Assay Code: SCLT, Evaluation Type: Evaluation B (Post-1980)",no conclusion
same,mutagenic call,"Species/Cell Type: Human, Assay Type: Sister-chromatid exchange (SCE) in vitro, Assay Code: SC1T, Evaluation Type: Evaluation B (Post-1980)",no conclusion
O=C1NC(=O)C(=O)C(=O)N1,mutagenic call,"Species/Cell Type: Neurospora crassa, Assay Type: Aneuploidy, chromosome aberrations, Assay Code: NEN-, Evaluation Type: Evaluation A (Pre-1980)",inactive; negative
C=CCOC(N)=O,mutagenic call,"Species/Cell Type: Nonhuman, Assay Type: Sister-chromatid exchange (SCE) in vivo, Assay Code: SC3+D, Dose Response: With dose response, Evaluation Type: Evaluation B (Post-1980)",active; positive
CC(C)=CC1C(C(=O)OCc2coc(Cc3ccccc3)c2)C1(C)C (configuration not stated),mutagenic call,"Species/Cell Type: Human diploid fibroblasts, Assay Type: Unscheduled DNA synthesis (UDS) in vitro, DNA effects, Assay Code: UDH-, Evaluation Type: Evaluation A (Pre-1980)",inactive; negative
same,mutagenic call,[1],inactive; negative
O=[N+]([O-])c1ccc(N2CCN(c3ccccc3)CC2)c2c1no[n+]2[O-],mutagenic call,"Species/Cell Type: Salmonella typhimurium (one or more of the five standard strains: TA98, TA100, TA1535, TA1537, and TA1538), Assay Type: Histidine reverse gene mutation, Ames assay, Assay Code: SAL+, Evaluation Type: Evaluation A (Pre-1980)",active; positive
